A short description of this data set: solubility of carisbamate in water. It is filed as physicochemical. The conditions noted are these: described as slightly soluble. Here is the method: Carisbamate has been problematic to formulate in an aqueous suspension because it is slightly soluble in water, i.e., more than 2 mg/ml, so that temperature changes can cause the carisbamate particles to dissolve in the aqueous suspension medium and then re-crystallize out on the remaining carisbamate crystals and change the size of the resulting crystals or re crystallize in a different polymorphic form. This change in crystal size or polymorphic form, e.g., from Form A to Form B, can cause an undesirable change in bioavailability of the suspension. The present invention is based in part on the discovery that the addition of hypromellose (hydroxypropyl methyl cellulose or HPMC) in the proper concentration will prevent or stabilize this crystal growth and therefore serve to stabilize the suspension maintaining bioavailability and improving shelf life of the product.

A word on the solubility: it is the concentration that dissolves in the medium under given conditions. Read a high solubility as a readily soluble substance. The compound `NC(=O)OC[C@@H](O)c1ccccc1Cl` [Carisbamate, S-(2-(2-chlorophenyl)-2-hydroxyethyl) oxocarboxamide] yielded a solubility greater than 2000 µg/mL.

The values above are taken from patent US10201519B2, “Stabilized pediatric suspension of carisbamate” (SK BIOPHARMACEUTICALS CO., LTD., priority 2007, dated 2019).
